Consider 90 molecules from a melting point compilation (Tetko et al.; mined from patent text by program, amines drawn as free bases though some values may be those of a salt).

`CCCn1nc2c(N)nc3ccccc3c2c1CC1CCOCC1`: the melting point was 218 to 220 °C.

The molecule `CC(C)(C)NCC(O)c1ccc(O)c(C(O)CO)c1` (stereo not given) showed a melting point of 190 to 192 °C.

In turn, `CC[C@@H](C[C@H](O)[C@H](CC1CCCCC1)NC(=O)[C@H](Cc1c[nH]cn1)NC[C@H](Cc1ccccc1)NC(=O)OC(C)(C)C)C(C)C` yielded a melting point of 144 °C.

Turning to `CC(C)Cc1nccc2c(CC(=O)O)cccc12`, the melting point was found to be 152 °C.

On to `CCC(=NOC)c1ccc(=O)[nH]c1CC`, for which the melting point lay in the range of 120 to 125 °C.

Turning to `CCOc1ccc(C(=O)CCC(=O)Nc2sc(-c3ccccc3)nc2-c2ccccc2)cc1`, the melting point is 169 to 170 °C.

In the case of `CC(=O)Sc1c(C)nn2c3ccccc3n(C(C)=O)c12`, the melting point was 191 to 193 °C.

In turn, `CS(=O)c1ccc(-c2nc(-c3ccc(F)cc3)c(-c3ccncc3)[nH]2)cc1` (stereo not given) returned a melting point of 250 to 252 °C.

`CN(C)S(=O)(=O)c1cc2c(c(Cl)c1Cl)OC(C(=O)OCC(=O)O)C2` (stereo not given) had a melting point of 149 to 150 °C.

Take `COc1ccc(Nc2ccc3cc(O)ccc3c2)cc1`: the melting point lay in the range of 152 to 153 °C.

The molecule `CCc1nc(SC)nn1-c1ccc(N)cc1` came in with a melting point of 132 °C.

`O=C(O)c1cc(Cl)c(Cl)c(Cl)n1` showed a melting point of 115 to 120 °C.

With `N#Cc1ccc(NCCO)c([N+](=O)[O-])c1`, the melting point lay within 132 to 134 °C.

The molecule `COC1=NC(=O)N(C2CCCCC2)S(=O)(=O)N1` displayed a melting point of 173 to 177 °C.

With `COc1ccccc1COc1nc2c(oc3ccccc32)c(-c2ccc3c(c2)OCCO3)c1C(=O)O`, the melting point is 179 °C.

`O=C(NO)c1ccc(C(=O)NOCc2cccc3ccccc23)cc1`: the melting point was 192 to 194 °C.

In the case of `CC1(c2ccccc2)OC(=O)Nc2ccc(-c3cccc(Cl)c3)cc21` (stereo not given), the melting point was in the range of 179 to 180 °C.

`COC(=O)C(C)(C)n1nnc2ccc(Oc3cc(F)c(C(F)(F)F)c(Cl)c3)cc21` gave a melting point of 76.8 to 80 °C.

As to `CC(=Cc1cc(Cl)ccc1O)[N+](=O)[O-]`, the melting point lay within 104 to 106 °C.

In turn, `CCOC1=NS(=O)(=O)c2cc(NC=O)ccc21` had a melting point of 188 to 194 °C.

`Oc1cc2c(cc1CNc1ccc(F)cc1F)OCC2` came in with a melting point of 119 to 121 °C.

`O=C(CC1CCCC1)Nc1ccc2cccc(O)c2c1` displayed a melting point of 162 to 165 °C.

`CN(C)c1ncc2c(=O)n(CCN3CCCCC3)sc2n1` showed a melting point of 128 to 129 °C.

In turn, `CCOC(=O)n1[nH]c(=O)c2c([N+](=O)[O-])cccc21` showed a melting point of 234 to 236 °C.

On to `O=C(CCCl)c1ccc2[nH]c3ccccc3c2c1`, for which the melting point lay within 148 to 151 °C.

In turn, `CC(C)CC(NC(=O)C(C)CS)C(=O)O` (stereo not given) had a melting point of 66 to 71 °C.

The molecule `CC(C)[Si](C#Cc1c2ccccc2c2ccc3c(C#C[Si](C(C)C)(C(C)C)C(C)C)c4ccccc4c4ccc1c2c34)(C(C)C)C(C)C` yielded a melting point of 318 to 321 °C.

`CC1NC(=O)NN=C1c1ccc(N)c(Br)c1` (stereo not given) yielded a melting point of 222 to 224 °C.

`CC1(C)c2cc(C#N)ccc2OC1N1CCOCC1` (stereo not given) showed a melting point of 105 to 107 °C.

`O=C(Nc1ccc(OC(F)(F)F)cc1)NC1CCN(S(=O)(=O)c2ccccc2)CC1`: the melting point lay within 188 to 189 °C.

For `COc1c(C)c2c(c(C(=O)O)c1C/C=C(\C)CCC(=O)O)C(=O)OC2`, the melting point fell in the range of 172 to 174 °C.

The molecule `COc1ccc2c(c1)C(NC(=O)C(F)(F)F)CC2` (stereo not given) showed a melting point of 128 to 136 °C.

In turn, `CCCCCCCCCCCCCC=C1CC(CO)(COC(C)=O)OC1=O` (racemic) came in with a melting point of 58 to 59 °C.

In turn, `CCCCCCCCCCCCCCCC(=O)OCC(O)COC(=O)CCCCCCCCCCCCCCC` returned a melting point of 71 to 73 °C.

The molecule `O=C(c1cncc(Br)c1)N1CCC(c2ccccc2)=N1` had a melting point of 113 to 115 °C.

Molecule `O=C(c1ccc([N+](=O)[O-])cc1)N1CCCCc2sc(Cl)c(Cl)c21` had a melting point of 140 to 142 °C.

With `CON(C)C(=O)Nc1ccc(OCCc2ccc(C(C)C)cc2)cc1`, the melting point lay within 81 to 82 °C.

Molecule `COc1ccc2ncn(/C=C/C(=O)O)c(=O)c2c1` yielded a melting point of 298 to 299 °C.

Consider `C=CCOc1ccc(C(=O)C=Cc2cc(OC)c(CCCCCC)c(OC)c2)cc1`, for which the melting point fell in the range of 77.9 to 78.2 °C.

`O=C(OC1CCCCC1)C(c1ccccc1)n1cnc2[nH]ncc2c1=S` (stereo not given) came in with a melting point of 170 to 173 °C.

The molecule `N#Cc1cccnc1NCc1nc2ccc(F)cc2c(=O)n1-c1ccccc1Cl` came in with a melting point of 145 to 150 °C.

`O=C1NC(=O)C(CCCCCc2ccc(O)cc2)O1` (stereo not given) yielded a melting point of 96 to 97 °C.

`CCOC(=O)CC[C@H](NC(=O)c1ccc(C(C)=Cc2cnc3nc(N)nc(N)c3c2)cc1)C(=O)OCC` returned a melting point above 300 °C.

Take `CCc1csc(-c2ccc3c(c2)C=C(C(=O)Nc2ccc(CN(C)C4CCOCC4)cc2)CCN3C)c1`: the melting point fell in the range of 139 to 141 °C.

As to `COc1ccc(OC)c(NC(=O)c2cc(OC)ccc2OC)c1`, the melting point lay in the range of 121 to 123 °C.

As to `CCn1cc(C(=O)NCCCN(C)C)c(=O)c2ccc(I)cc21`, the melting point fell in the range of 161 to 162 °C.

`CCc1cc2c(cc1CC)C(=O)C(Cl)=CC2=O`: the melting point fell in the range of 90 to 92 °C.

Take `Cc1ccc2c(c1)c(N1CCN(C(=O)c3cccs3)CC1)c(C#N)c(=O)n2CCN(C)C`: the melting point lay in the range of 110 to 117 °C.

`CCOc1ccccc1O[C@@H]1CN(Cc2ccccc2)C[C@H]1O` (relative stereo) came in with a melting point of 88.5 to 90 °C.

Take `CC(Br)CCC(C)(N)P(O)O` (stereo not given): the melting point was in the range of 146 to 148 °C.

On to `O=C(CCC1CCNCC1)c1ccc2[nH]c3ccccc3c2c1`, for which the melting point is 206 to 209 °C.

Take `CS(=O)(=O)c1ccc(C(=O)c2cnoc2C2CC2)c(C(F)(F)F)c1S(C)(=O)=O`: the melting point fell in the range of 191 to 193 °C.

`COC(=O)C[C@H]1C[C@H](C(=O)O)Nc2cc(Cl)cc(Cl)c21` (relative stereo) displayed a melting point of 181 to 182 °C.

`Cc1cccc(NC(=O)NCC(=O)N(CC(=O)OC(C)(C)C)c2ccccc2Nc2ccccc2)c1` came in with a melting point of 180 °C.

For `Cc1c(NC(=O)CC(C)(C)C)cc2c(c1C)OC(C)(C)C2c1cccs1` (stereo not given), the melting point fell in the range of 137 to 138 °C.

For `O=C1CCCC2=C1C(c1cc(Br)cs1)C1=C(CCS1)N2` (stereo not given), the melting point was above 250 °C.

`CC(CO)Cn1cnc2c(N)nc3ccccc3c21` (stereo not given) came in with a melting point of 258 to 261 °C.

In the case of `CC(C)OC(=O)NC12CC1CN(Cc1ccccc1)C2` (stereo not given), the melting point amounted to 88 °C.

`CCc1ccc2c(-c3cnc4[nH]cc(C(=O)N[C@H](C)C(=O)N5CC(C#N)C5)c4n3)nn(C)c2c1`: the melting point lay within 185 to 190 °C.

In turn, `Oc1cc2c(cc1F)[C@H](O)[C@H](N1CCC(O)(c3ccc(F)cc3)CC1)CO2` (relative stereo) gave a melting point of 160 to 161 °C.

`CCOC(=O)c1cnc2[nH]ncc2c1OCC` displayed a melting point of 180 °C.

As to `O=C(C[C@@H](c1cc(F)cc(F)c1)C(F)(F)F)N1C(=O)OC[C@@H]1Cc1ccccc1`, the melting point was in the range of 127 to 128 °C.

`O=CN(Cc1cccc2ccccc12)c1cccc(NC(=O)c2cc(Cl)cc(Cl)c2)c1` displayed a melting point of 205 to 208 °C.

On to `N#Cc1cc(F)cc(C#N)c1`, for which the melting point lay within 98 to 100 °C.

`COc1ccc(C=C2SC(N3CCOCC3)=NC2=O)cc1-c1ccc(O)c(C23CC4CC(CC(C4)C2)C3)c1` gave a melting point of 339 to 343 °C.

Molecule `COC(=O)CCSC(SCCC(=O)OC)c1cccc(C=Cc2ccc3ccc(Cl)cc3n2)c1` showed a melting point of 53 °C.

The molecule `CCN1CCC(CNC(=O)c2cc(Cl)c(N)[nH]c2=O)CC1` returned a melting point of 136 to 140 °C.

As to `CN=C(Cc1ccccc1)N1CC2C(=O)CCC(c3ccccc3)(c3ccccc3)C2C1` (stereo not given), the melting point amounted to 110 °C.

`CCCCc1sc2ccc([N+](=O)[O-])cc2c1C(=O)c1ccc(O)cc1`: the melting point came to 147 °C.

On to `O=[N+]([O-])c1ccccc1Oc1ccc(Cl)cc1`, for which the melting point was 33 to 35 °C.

Molecule `CCOC(=O)C=C(NC(=O)Nc1cc(OC(C)C)c(Cl)cc1F)C(F)(F)F` registered a melting point of 144 to 146 °C.

Consider `CCOC(=O)c1cc(C#N)c(C)nc1NC(C)CC` (stereo not given), for which the melting point was in the range of 55 to 57 °C.

Turning to `CC(=O)c1cc(C(C)=O)c(OCCCCC#N)cc1O`, the melting point was 105 to 106 °C.

`CC(=O)NC[C@H]1CN(c2ccc(N3CCC(CC#N)CC3)cc2)C(=O)O1` came in with a melting point of 150 to 152 °C.

Molecule `O=[N+]([O-])c1cccc2c1COCO2` came in with a melting point of 76 to 77 °C.

In the case of `CC1(C)Cc2cccc(CCN3CCN(c4nsc5ccccc45)CC3)c2NC1=O`, the melting point was found to be 95 °C.

`Cc1c(C#N)c(N)n(-c2c(Br)cc(C(F)(F)F)cc2Br)c1C` gave a melting point of 158 to 161 °C.

`O=C(O)c1cc2cc(Br)cc(Br)c2nc1NC(Cc1ccccc1)C(=O)O` (stereo not given) had a melting point of 115 to 117 °C.

For `Nc1sc2c(c1C(=O)c1ccccc1)CCN(C(=O)OCc1ccccc1)C2`, the melting point lay within 138 to 140 °C.

`CCOCc1nc2c(N)nc3cc(OCc4nc(-c5cccs5)no4)ccc3c2n1CC(C)(C)O` came in with a melting point of 173 to 175 °C.

In turn, `C#CCN(C(C)=O)c1cccc(-c2ccnc3c(C#N)cnn23)c1` had a melting point of 193 to 195 °C.

`COc1ccc(C2=NCCc3c(C)cccc32)cc1`: the melting point is 83 to 83.5 °C.

`C=Cc1ccc(OCc2ccccc2)cc1OCC(=O)c1ccc(OC)cc1` showed a melting point of 93 to 94 °C.

Turning to `CCOC(=O)CCNC(=O)Nc1ccncc1`, the melting point was 95 °C.

Take `CN(C[C@H]1CC[C@H](c2nc3ccccc3n2C)CC1)C(=O)OCc1ccccc1`: the melting point fell in the range of 141 to 142 °C.

Take `COc1ccc(C2CCCCC2)cc1-c1csc(NC(=O)N2CCN(C[C@@H]3CCCN(C4CC4)C3)CC2)n1`: the melting point stood at 88 °C.

With `COc1ccc2oc(N(C=O)[C@@H](Cc3ccccn3)c3ncc(-c4ccc(N5CCOCC5)cc4)n3C)cc2c1`, the melting point was 122 to 124 °C.

`C=CCc1c(SC(C)=O)[nH]c(-c2ccc(Cl)cc2)c1-c1ccc(Cl)cc1` registered a melting point of 131 to 132 °C.

In the case of `O=C(O)CSc1nc(Cl)cc(NCc2ccc(Cl)c(Cl)c2)n1`, the melting point was 64 to 69 °C.

As to `O=S(=O)(NCCCCOc1ccc(-n2ccnc2)cc1)c1cc(Cl)ccc1Cl`, the melting point fell in the range of 144 to 146 °C.

The melting point is the temperature, or range, at which the solid turns liquid.
